“And” between values parts separate entries of the source, which are not always exact repeats. Equal entries are not always repeated. Where only a bound is given, the exact number is not on record here.

The values that follow come from patent US20250250582A1, “Plant Cells and Plants Modified to Increase Herbicide Resistance and Stress Tolerance and Methods of Using the Same” (The Board of Trustees of the University of Arkansas, priority 2018, published 2025).

For data set [1], the system named is multiple-resistant E. colona (ECO-R). The data set can be described thus: Herbicide resistance profile of ECO-R. It counts as in vivo, Echinochloa colona. To be noted: data not shown. The text has this:
Beginning in 2010, through the 2016 cropping cycle, Echinochloa spp. from throughout the rice producing counties of Arkansas, USA, located along the Mississippi River were sampled for a survey of the current status of herbicide resistance. Seeds were bulk sampled from plants that had matured in rice and soybean production fields, which had survived at least one herbicide application, were collected and sent to the University of Arkansas Altheimer Laboratory in Fayetteville for characterization and evaluation of herbicide resistance to common rice herbicides. […] From this screening program, two populations of E. colona were selected for use in this experiment. […] To establish inbred and homozygous accessions for the experiment, a single plant, verified as resistant/susceptible of ECO-R and ECO-S were grown in isolation to produce seed for further experiments.
Accession source and population profiling. From 2010 to 2016, the University of Arkansas weed physiology group has been collecting putative herbicide-resistant Echinochloa populations from rice production fields throughout the state of Arkansas. […] Collections took place in the late summer to early fall prior to rice harvest; these accessions were bulk sampled by in-field location and farm, with field histories collected when possible. All of the samples were submitted to the University of Arkansas Altheimer Laboratory for assessment of their resistance profile and characterized according to their species. […] Populations with unique profiles and of interest for further research were then grown in isolation to produce pureline seed. […] Another accession, E. colona susceptible (ECO-S), was also selected and grown in isolation. This accession was selected because of its similar cropping history and geographic location, as well as its high level of susceptibility to the herbicides of interest.

For data set [2] the test system is unchanged. The data set can be described thus: RNA-sequencing differential gene expression, herbicide-treated vs nontreated ECO-R. To be noted: ECO-R-T vs ECO-R-N, 24 h. From the text: (§1) Pure-line generated seed of each accession were germinated in pots containing potting soil within a temperature/light controlled growth chamber set to a 14-hr day length, 33 C day temperature, and 24 C night time to simulate environmental conditions early in the rice growing season. A single plant was maintained in each of the pots and used for the treatments; two pots were used as individual biological replicates. […] Pots for each of the respective treatments were labeled as either ECO-R/S-T for the treated samples and ECO-R/S-N for the non-treated counterpart. To minimize the effect that the sprayer may play in the application, both plants of the ECO-R and ECO-S were treated at the same time. After approximately 30 minutes, allowing for the plants to dry, the treated and non-treated plants of both accessions were moved back into the growth chamber. Precisely 24-hours after application, the aboveground portion of each of the plants were removed and immediately frozen in liquid nitrogen to cease all biological function. Samples were then transferred to RNAlater™-ICE (Invitrogen, Carlsbad CA, USA) for shipment to the Clemson University Genomics Institute (CUGI), in Clemson, South Carolina.
(§2) RNA was extracted from the young leaf tissues of both replications for the ECO-R and ECO-S, T and N samples, at Clemson University. Total RNA was extracted with a kit according to the manufactures instructions. The extracted RNA was treated with DNase (Invitrogen, Calsbad, CA, USA) to remove any DNA contamination prior to further processing. The samples were prepared for sequencing by CUGI. For library preparation, the TruSeq Stranded Total RNA kit (Illumina Inc., San Diego, CA, USA) was used according to the instructions provided by the manufacturer to produce a paired-end library for sequencing. Ribosomal RNA was removed using target-specific oligonucleotides paired with rRNA removal beads, removing all cytoplasmic and mitochondrial rRNA that may result in poor quality results. RNA was fragmented and reverse transcribed to cDNA using random primers, followed by a second strand cDNA synthesis. Each fragment is then ligated with an additional ‘A’ and an adapter for sequencing. The PCR enriched product is then used to create the final cDNA library. All samples were sequenced on an Illumina Hiseq 2500 platform housed in the Holdings Cancer Center at the Medical University of South Carolina, Charleston, SC, USA. Samples, regardless of treatments or replication were ran across three lanes to reduce sequencing errors from the equipment. The resulting data were processed by CUGI.
(§3) A de novo transcriptome was assembled from the treatments described for this experiment as well as several treatments, which included herbicides profiled in ECO-R. The treatments were applied to both ECO-R and ECO-S samples with two replications as described previously. In total, 20 individual plants, from both the ECO-R and ECO-S accessions, as well as T and NT samples, were used for the assembly. The transcriptome was assembled using the Trinity RNA-Seq pipeline (Broad Institute, Cambridge, MA, USA). Raw data were assessed for quality using FastQC (Babraham Institute, Cambridge, UK) and then processed to remove adapter sequences and low quality bases using a sliding window method. The processed data were then rerun using FastQC to ensure high quality reads. Using the TrinityRNASeq 2.2.0 software, the samples were normalized, by replication, using a coverage size of 100 and kmer of 32. The normalized reads were then assembled as transcripts and genes using Trinity with the stranded library set as the default.

For data set [3], the system named is resistant Echinochloa species. The data set can be described thus: Determination of resistance level (visual injury), resistant accessions. To be noted: 2 X dose, visual 3 wk after treatment; propanil range excludes ECO187. It counts as in vivo, E. colona and E. crus-galli. From the text: The experiment was repeated once.
The subject of data set [4] is susceptible E. colona (ECO-S). The data set can be described thus: RNA-sequencing differential gene expression, herbicide-treated vs nontreated ECO-S. To be noted: ECO-S-T vs ECO-S-N, 24 h.
Excerpt: as §1, §2, §3

Data set [5] has as its system ECO-R compared to ECO-S after herbicide treatment. The data set can be described thus: RNA-sequencing differential gene expression, ECO-R-T compared to ECO-S-T. To be noted: ECO-R-T vs ECO-S-T, 24 h.
Excerpt: as §1, §2, §3

In data set [6] the test system is susceptible E. colona standard. Briefly: Determination of resistance level (visual injury), susceptible plants. To be noted: 2 X dose, visual 3 wk after treatment.

`C[C@@H](Oc1ccc(Oc2ccc(C#N)cc2F)cc1)C(=O)O` [cyhalofop] registered a level of resistance in data set [1] of about 2 × field dose.
Regarding `CP(=O)(O)CCC(N)C(=O)O` (stereo not shown) [glufosinate], in data set [2] (induced), the “glutamine synthetase (one form) fold change” value came out at 7.5 fold and the “glutamine synthetase cytosolic isozyme 1-3 fold change” value is 8.2 fold. This compound had a level of resistance in data set [1] of about 2 × field dose.
With `O=C(O)c1c(Cl)ccc2cc(Cl)cnc12` [quinclorac], the “injury of resistant Echinochloa species” value in data set [3] was 2-65%. Further, in data set [2], the ABCD2 fold change was −9.2 fold, the “ACC synthase fold change” value came out at 6.3 fold, the UGT73D1 fold change is listed as 5.3 fold and the UGT73E1 fold change is given as 2.6 fold. Moreover, in data set [2], the UGT75D1 fold change is 7.3 fold and ~9 fold; the “cytochrome c oxidase proteins fold change” value was −8.4 fold. The “ATP synthase subunit(s) fold change” value in data set [2] (repressed) is on record as “up to −12.3 fold”. In data set [2] (repressed up to), the “acetyl-CoA and acetyl-CoA 2 proteins fold change” value is recorded as “up to −10.2 fold”; the “pyruvate dehydrogenase subunits fold change” value was at most −12 fold. Besides, in data set [4], the ABCB5 fold change is −6.5 fold; the ABCC10 fold change is −6.1 fold; the “ACC oxidase 1 fold change (two forms)” value is 2.2 fold and 2.8 fold; the “ACC oxidase fold change” value is reported as −2.8 fold. Further, in data set [4], the “ACC oxidase homolog 3 fold change” value is −2.2 fold; the “ACC synthase fold change” value is −2.7 fold; the “ALPL1 fold change, five repressed transcripts” value is reported as −12 to −1.4 fold; the EIN2 fold change is recorded as 3.9 fold. In addition, in data set [4], the RAP2-2 fold change is recorded as 1.9 fold and the “VP14 (9-cis-epoxycarotenoid dioxygenase) fold change” value is −6.4 fold. Further, the “ALPL1 fold change, three induced transcripts” value in data set [4] (as much as) is recorded as at most 3.5 fold. The same compound showed a level of resistance in data set [1] of over 32 × field dose. Further, in data set [5], the “ABA receptor PYL5 fold change” value is −4.4 fold; the “ACC synthase fold change” value was found to be 9 fold; the “Alanine aminotransferase 2 Fold Change” value is 4 fold; the “Aspartate aminotransferase, chloroplastic Fold Change” value was found to be 4 fold. Moreover, in data set [5], the “Beta-amylase 1, chloroplastic Fold Change” value was 4 fold; the “Branched-chain-amino-acid aminotransferase 5, chloroplastic Fold Change” value is given as 4 fold; the “CYP71A1 Fold Change” value is 3 fold and 5 fold and 6 fold; the “CYP71A4 Fold Change” value is 5.6 fold and 6 fold. Moreover, in data set [5], the “CYP71A8 Fold Change” value was 4 fold, the “CYP71A9 Fold Change” value is reported as −6 fold, the “CYP72A15 Fold Change” value is −7 fold and the “CYP89A2 Fold Change” value is listed as −10 fold. For the same compound, in data set [5], the “CYP709B2 Fold Change” value is 6 fold and 7 fold and 11 fold; the “Desumoylating isopeptidase 1 Fold Change” value was determined as 4 fold; the “Fructose-bisphosphate aldolase, chloroplastic Fold Change” value worked out at 4 fold; the “GSTU20 Fold Change” value turned out to be 6 fold. Also, in data set [5], the “Haloacid dehalogenase-like hydrolase domain-containing protein 3 Fold Change” value is listed as 4 fold; the “IAA-amino acid hydrolase ILR1-like 4 Fold Change” value is −6 fold; the “Nudix hydrolase 21, chloroplastic Fold Change” value was 3 fold and 4 fold; the “Probable xyloglucan endotransglucosylase/hydrolase protein 28 Fold Change” value is −4 fold. Moreover, in data set [5], the “Prolyl endopeptidase Fold Change” value was 8 fold and 9 fold and 15 fold; the “Pyrimidine-specific ribonucleoside hydrolase RihA Fold Change” value was −9 fold; the “Serine carboxypeptidase-like 42 Fold Change” value is given as −5 fold; the “UGT73D1 fold change” value turned out to be 8 fold. In data set [5], the “UGT73E1 fold change” value amounted to 5 fold; the “UGT74D1 Fold Change” value is −4 fold; the “UGT75D1 fold change” value is 8.7 fold and 9 fold; the “UGT88A1 Fold Change” value came out at 4 fold. This compound yielded a susceptible plants killed in data set [6] of 100%.
